# Laboratory results taken from US4190675A (priority 1976, dated 1980).
# Entries after “also recorded” stand apart in the source; their conditions may differ.
# Assays:
# [1] = Acute toxicity in rats (LD50, Litchfield and Wilcoxon); conditions: rat, in vivo, iv, intravenously
# [2] = test system: isolated Guinea-pig trachea; experiment: Relaxation of the isolated Guinea-pig trachea (Costantine); type: cell-based
# rabbits = experiment: Inhibition of histamine-induced bronchospasm by intravenous perfusion in rabbits; type: in vivo; conditions: perfused intravenously 2.5 milligrams per kilogram and per minute
# rats = experiment: Carrageenin-induced paw oedema in rats (Winter); type: in vivo, albino rats, COBS (Charles River) stock
# red blood cells of rats = experiment: Protection of red blood cells from haemolysis induced by Tween 80, in vitro; type: cell-based
# Description: (fiducial limits 95% : 518.0-760.11).
# thrombocyte aggregation = experiment: Inhibition of thrombocyte aggregation from ADP in vitro (Born and Cross); type: cell-based
# Staphylococcus aureus = experiment: Antibacterial activity (MIC), Staphylococcus aureus; type: cell-based
# Escherichia coli = experiment: Antibacterial activity (MIC), Escherichia coli; type: cell-based
smiles,measurement,setting,value
"C=C1C(O)CC2CC1C2(C)C (stereo not drawn) [Pinocarveol, pinocarveol]",LD50,[1],140 mg/kg
same,"relaxation of the smooth tracheal muscles, intensity compared with Fraction 2 and sobrerol (in words)","[2]; in vitro, isolated Guinea-pig trachea",statistically higher than that of sobrerol and which can be compared to that of Fraction 2
same,"bronchodilating activity, grade (in words)","[2]; overall, in vitro and in vivo",fair bronchodilating action; also recorded: poor bronchodilating action
same,inhibition of histamine-induced bronchospasm compared with Fraction 2 and sobrerol (in words),rabbits,statistically higher than those of FRACTION 2 and of sobrerol
same,"anti-inflammatory action, grade (in words)",rats; overall summary,pronounced anti-inflammatory action
same,inhibition of carrageenin paw oedema compared with Fraction 2 and sobrerol (in words),"rats; rats, 30 mg/kg intravenously",more intense than those of Fraction 2 and of sobrerol
same,EC50,"red blood cells of rats; Rattus norvegicus, Erythrocyte, Tween 80, 20 to 200 micrograms/ml, fiducial limits 95%=111.5-153.04, read-out: Effective Concentration 50% (EC 50), protection from haemolysis",132 µg/mL
same,"antihaemolytic activity, grade (in words)",red blood cells of rats; overall summary,pronounced antihaemolytic activity
same,inhibition of thrombocyte aggregation compared with Fraction 2 and sobrerol (in words),"thrombocyte aggregation; 160 to 1,280 micrograms/ml, ADP, in vitro",exceeds that of the terpenes of the Fraction 2 and that of sobrerol
same,"antiaggregative action, grade (in words)",thrombocyte aggregation; overall summary,conspicuous antiaggregative action
same,"antibacterial activity, grade (in words)",Staphylococcus aureus; Gram-positive germs / overall,poor antibacterial activity; also recorded: poor antibacterial action
same,antibacterial activity compared with Fraction 2 and sobrerol (in words),Staphylococcus aureus; Staphylococcus aureus and Escherichia coli,more active than sobrerol and as active as Fraction 2
same,MIC,"Staphylococcus aureus; Staphylococcus aureus, read-out: Minimum Inhibiting Concentration (MIC)",800 µg/mL
same,MIC,"Escherichia coli; Escherichia coli, read-out: Minimum Inhibiting Concentration (MIC)",800 µg/mL
same,"antibacterial activity, grade (in words)",Escherichia coli; Gram-negative germs,poor antibacterial activity
